Key:
[1] = tested on: FXR, GR, LXRα, LXRβ, PPARγ, RXRα, RXRβ, VDR; experiment: GeneBLAzer nuclear receptor assays; assay type: cell-based; details: 18 μM
Protocol: FIG. 3B-FIG. 31 show representative data for treatment of GeneBLAzer® cells treated with DMSO (negative control), a predetermined concentration of the indicated nuclear receptor (“NR”) antagonist (positive control; concentration as detailed in Examples), or 18 μM of CINPA1 in the presence or absence the indicated NR agonist (i.e., indicated below treatments). NR-mediated β-lactamase activity was measured as a FRET ratio after 24 h treatment. Data is presented as % Activity, determined by setting the maximum FRET signal obtained for each receptor (in the respective agonist+DMSO wells) to 100%. eGugg=e Guggulsterone, Feno=Fenofibrate, GW9=GW9662, 22HC=22(S)-hydroxycholesterol, 9-cis RA=9-cis retinoic acid.
GeneBLAzer® cells individually expressing the ligand-binding domains of either FXR, GR, LXRα, LXRβ, PPARγ, RXRα, RXRβ, or VDR fused to the GAL4-DNA binding domain (GAL4-DBD) were obtained from Life Technologies (Li, G., et al. (2012) Tox. Appl. Pharm. 258, 268-274; and Yu, D. D., et al. (2013) Bioorg. Med. Chem 21, 4266-4278). Upon activation with the respective agonist, β-lactamase is expressed under the transcriptional control of an Upstream Activator Sequence (UAS), and a FRET-based substrate (CCF2-AM) is used to measure the enzyme activity of β-lactamase.

[2] = molecular target: T1, hCAR1 (Homo sapiens, UniProt Q14994); experiment: Cell-based inverse agonist assay (CYP2B6-luciferase reporter in HepG2 cells transfected with hCAR1); details: 24 h treatment; read-out: IC50, inhibition of CAR-mediated CYP2B6-luciferase activity
T1 construct: expressed in transfected cells; host or cells: HepG2 (transient transfection)
T1 sequence (Q14994 1-348 isoform Q14994-2): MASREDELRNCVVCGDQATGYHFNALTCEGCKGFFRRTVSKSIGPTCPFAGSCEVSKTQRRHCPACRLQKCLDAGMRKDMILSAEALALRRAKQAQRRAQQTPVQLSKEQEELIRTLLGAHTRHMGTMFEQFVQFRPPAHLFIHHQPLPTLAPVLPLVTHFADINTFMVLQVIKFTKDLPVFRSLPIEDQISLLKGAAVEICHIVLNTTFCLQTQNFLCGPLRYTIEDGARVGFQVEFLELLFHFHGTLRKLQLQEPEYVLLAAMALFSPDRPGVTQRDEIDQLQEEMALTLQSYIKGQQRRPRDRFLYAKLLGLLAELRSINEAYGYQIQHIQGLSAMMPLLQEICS
Protocol: HepG2 cells grown in flasks were transfected with Flag-hCAR1 and CYP2B6-luciferase reporter at a 1:3 ratio with Fugene HD (Promega) and incubated for 24 h. Cells were trypsinized and plated in 384-well plates (CulturPlate-384, PerkinElmer) at 5000 cells/well for the primary or secondary screening assays. Cells were treated with chemicals transferred by using a pintool 24 h prior to measuring reporter luciferase activity with SteadyLite firefly luciferase reagent and an EnVision plate reader (PerkinElmer). […] PXR activity was measured in HepG2 cells stably transfected with hPXR and CYP3A4-luciferase reporter (previously described as PXR Clonel cells, see Li, G., et al. (2012) Tox. Appl. Pharm. 258, 268-274; and Lin, W., et al. (2008) J. Biol. Chem. 283, 30650-30657). […] The luminescence signal was detected by using an Envision plate reader (PerkinElmer) and used to calculate the percentage of PXR activation. […] A flowchart of our screening strategy is illustrated in FIG. 1A. HepG2 cells were transiently transfected with pcDNA-hCAR1 and CYP2B6-luciferase plasmids and treated with varying concentrations of the test compounds in 384-well plates for 24 h, and CAR-mediated luciferase activity was measured. Twenty-five hits, defined as those displaying dose-responsive inhibitory effect on the constitutively active hCAR1, were selected and tested in various secondary screening assays. CINPA1 (FIG. 1B) was selected based on its potent inhibitory effect on hCAR1 and lack of detectable agonistic activity against PXR.

In the case of `CCOC(=O)Nc1ccc2c(c1)N(C(=O)CN(CC)CC)c1ccccc1CC2` [CINPA1], the “attenuation of agonist-induced receptor activation” value ([1]; with NR agonist) is reported as “did not attenuate the agonist-induced activation of any of the receptors tested”, the “activation of nuclear receptors” value ([1]; without agonist) is reported as “did not activate any of the nuclear receptors tested” and the IC50 [2] is reported as 72 nM.
